Here are results for 21 compounds from ChEMBL document CHEMBL1132272, “Prediction of ligand-receptor binding thermodynamics by free energy force field three-dimensional quantitative structure-activity relationship analysis: applications to a set of glucose analogue inhibitors of glycogen phosphorylase” (J Med Chem, 1999).

The test can be described thus: The compound was evaluated for the inhibition of glycogen phosphorylase.

As for `CC1OC(CO)C(O)C(O)C1O` (stereo unspecified), the Ki (as a rule, the dissociation constant of the complex between target and ligand, obtained from inhibition or displacement) was 53100 µM.

In the case of `NCC1OC(CO)C(O)C(O)C1O` (stereo unspecified), affinity was put at a Ki of 34500 µM.

`N#CC[C@@H]1O[C@H](CO)[C@@H](O)[C@H](O)[C@H]1O`: the Ki was 9000 µM.

With `O=C(CBr)N[C@H]1O[C@@H](CO)[C@@H](O)[C@H](O)[C@@H]1O`, the Ki worked out at 44 µM.

`NC(=O)C1OC(CO)C(O)C(O)C1O` (stereo in doubt; 11) showed a Ki of 440 µM.

Regarding `OCC1OC(CO)C(O)C(O)C1O` (stereo unspecified), the Ki came out at 1500 µM.

On to `CC(=O)N[C@H]1O[C@H](CO)[C@@H](O)[C@H](O)[C@H]1O`, for which the inhibitory constant (Ki) came to 32 µM.

In turn, `CNC(=O)C1OC(CO)C(O)C(O)C1O` (stereo in doubt; 8) gave a Ki of 160 µM.

For `NC(=O)N[C@H]1O[C@H](CO)[C@@H](O)[C@H](O)[C@H]1O`, the inhibition constant Ki turned out to be 140 µM.

Turning to `CCC(=O)N[C@H]1O[C@H](CO)[C@@H](O)[C@H](O)[C@H]1O`, the Ki came to 39 µM.

With `O=C(Nc1ccccc1)C1OC(CO)C(O)C(O)C1O` (stereo unspecified), the Ki amounted to 5400 µM.

The compound `O=C(CCl)N[C@H]1O[C@H](CO)[C@@H](O)[C@H](O)[C@H]1O` gave a Ki of 45 µM.

Compound `NC(=O)C1OC(CO)C(O)C(O)C1O` (stereo in doubt; 10) registered an inhibition constant Ki of 370 µM.

As for `NCC(=O)N[C@H]1O[C@@H](CO)[C@@H](O)[C@H](O)[C@@H]1O`, the Ki stood at 370 µM.

Turning to `CNC(=O)C1OC(CO)C(O)C(O)C1O` (stereo in doubt; 22), the Ki came to 36700 µM.

`NNC(=O)[C@@H]1O[C@H](CO)[C@@H](O)[C@H](O)[C@H]1O` returned a Ki of 980 µM.

`OCC1OC(S)C(O)C(O)C1O` (stereo unspecified) registered a Ki of 1000 µM.

`CO[C@@H]1O[C@H](CO)[C@H](O)[C@H](O)[C@H]1O` returned a Ki of 24700 µM.

The compound `O=C(N[C@H]1O[C@H](CO)[C@@H](O)[C@H](O)[C@H]1O)c1ccccc1` displayed an inhibition constant (Ki) of 81 µM.

For `CCCC(=O)N[C@H]1O[C@H](CO)[C@@H](O)[C@H](O)[C@H]1O`, the inhibitory constant (Ki) was 94 µM.

Take `OC[C@H]1O[C@](O)(CO)[C@@H](O)[C@H](O)[C@H]1O`: the affinity, expressed as Ki, was 15800 µM. This Ki lies about 170-fold higher than the previous one.
